Reference: patent publication US9765035B2 (priority 2013, dated 2017)

Target: T1, Human CARM1 (PRMT4) (Homo sapiens, UniProt Q86X55)
T1 construct: Flag-CARM1-His; made in house; host or cells: HEK 293F cells (BacMam baculovirus)
T1 sequence (Q86X55 1-585 isoform Q86X55-1): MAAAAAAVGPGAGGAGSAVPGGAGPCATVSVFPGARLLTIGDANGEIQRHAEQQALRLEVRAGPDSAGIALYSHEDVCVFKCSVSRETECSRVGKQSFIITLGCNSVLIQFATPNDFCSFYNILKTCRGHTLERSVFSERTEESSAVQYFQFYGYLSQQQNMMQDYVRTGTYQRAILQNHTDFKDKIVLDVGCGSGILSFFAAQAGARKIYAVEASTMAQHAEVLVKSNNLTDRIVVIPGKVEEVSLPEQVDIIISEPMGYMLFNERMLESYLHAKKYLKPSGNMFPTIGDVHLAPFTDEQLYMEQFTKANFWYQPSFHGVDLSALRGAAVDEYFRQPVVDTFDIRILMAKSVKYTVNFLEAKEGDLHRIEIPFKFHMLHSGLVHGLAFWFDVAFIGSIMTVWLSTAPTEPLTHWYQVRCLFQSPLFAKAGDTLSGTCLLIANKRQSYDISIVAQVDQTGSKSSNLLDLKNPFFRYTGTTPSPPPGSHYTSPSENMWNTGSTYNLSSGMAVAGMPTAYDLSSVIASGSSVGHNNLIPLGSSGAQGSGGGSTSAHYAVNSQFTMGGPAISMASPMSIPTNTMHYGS
Experiment: CARM1 Biochemical Assay
Description: General Materials. S-adenosylmethionine (SAM), S-adenosylhomocysteine (SAH), bicine, Tween20, dimethylsulfoxide (DMSO), bovine skin gelatin (BSG), sodium butyrate and Tris(2-carboxyethyl)phosphine hydrochloride solution (TCEP) were purchased from Sigma-Aldrich at the highest level of purity possible. ^3H-SAM was purchase from American Radiolabeled Chemicals with a specific activity of 80 Ci/mmol. 384-well streptavidin Flashplates were purchased from PerkinElmer.
Substrates. Peptide representative of human histone H3 residues 16-30 was synthesized with an N-terminal linker-affinity tag motif and a C-terminal amide cap by 21st Century Biochemicals. The peptide was purified by high-performance liquid chromatography (HPLC) to greater than 95% purity and confirmed by liquid chromatography mass spectrometry (LC-MS). The sequence was Biot-Ahx-[…]-amide and contained a monomethylated arginine at position 26 (SEQ ID NO.: 14).
Molecular Biology: Human CARM1 (PRMT4) (NM_199141.1) transcript clone was amplified from an HEK 293 cDNA library, incorporating a flanking 5′ sequence encoding a FLAG tag ([…]) (SEQ ID NO.:6) fused directly to Ala 2 of CARM1 and 3′ sequence encoding a hexa His sequence ([…]) (SEQ ID NO.: 15) fused directly to Ser 608. The gene sequence encoding isoform1 containing a deletion of amino acids 539-561 was amplified subsequently and subcloned into pFastBacMam (Viva Biotech).
Protein Expression. Recombinant baculovirus were generated according to Bac-to-Bac kit instructions (Life Technologies). […] Infections were carried out at 37° C. for 48 hours, harvested by centrifugation, and stored at −80° C. for purification.
Protein Purification. […] Column was washed with 500 mM NaCl in buffer A and Flag-CARM1-His was eluted with 200 ug/ml FLAG peptide in buffer A. Pooled fractions were dialyzed in 20 mM Tris, 150 mM NaCl, 5% glycerol and 1 mM DTT, pH 7.8. The purity of recovered protein was 94.
General Procedure for CARM1 Enzyme Assays on Peptide Substrates. The assays were all performed in a buffer consisting of 20 mM Bicine (pH=7.6), 1 mM TCEP, 0.005% BSG, and 0.002% Tween 20, prepared on the day of use. Compounds in 100% DMSO (1 ul) were spotted into a polypropylene 384-well V-bottom plates (Greiner) using a Platemate Plus outfitted with a 384-channel head (Thermo Scientific). DMSO (1 ul) was added to Columns 11, 12, 23, 24, rows A-H for the maximum signal control and 1 ul of SAH, a known product and inhibitor of CARM1, was added to columns 11, 12, 23, 24, rows I-P for the minimum signal control. A cocktail (40 ul) containing the CARM1 enzyme was added by Multidrop Combi (Thermo-Fisher). The compounds were allowed to incubate with CARM1 for 30 min at room temperature, then a cocktail (10 ul) containing ^3H-SAM and peptide was added to initiate the reaction (final volume=51 ul). The final concentrations of the components were as follows: CARM1 was 0.25 nM, ^3H-SAM was 30 nM, peptide was 250 nM, SAH in the minimum signal control wells was 1 mM, and the DMSO concentration was 2%. The assays were stopped by the addition of non-radiolabeled SAM (10 ul) to a final concentration of 300 uM, which dilutes the ^3H-SAM to a level where its incorporation into the peptide substrate is no longer detectable. 50 ul of the reaction in the 384-well polypropylene plate was then transferred to a 384-well Flashplate and the biotinylated peptides were allowed to bind to the streptavidin surface for at least 1 hour before being washed once with 0.1% Tween20 in a Biotek EL×405 plate washer. The plates were then read in a PerkinElmer TopCount plate reader to measure the quantity of ^3H-labeled peptide bound to the Flashplate surface, measured as disintegrations per minute (dpm) or alternatively, referred to as counts per minute (cpm).
Where dpm=disintegrations per minute, cmpd=signal in assay well, and min and max are the respective minimum and maximum signal controls. […]

[1] = PRMT4 IC50, biochemical evaluation, CARM1 (PRMT4), peptide substrate
[2] = PRMT4 biochemical evaluation (numerical), single experiment or average of multiple experiments

Compound | IC50 [1] [nM] | IC50 [2] [nM]
CNCCN(C)Cc1n[nH]c2ccc(Oc3ccc(OC(C)C)cc3)cc12 [Compound 61] | 3010 to 10000 | 87.3
CNCCN(C)Cc1nn(C(C)C)c2ccc(OCc3ccc(C#N)cc3)cc12 [Compound 62] | 1010 to 3000 | 364
CCOc1ccc2[nH]nc(CN(C)CCNC)c2c1 [Compound 63] | 3010 to 10000 | 4160
CNCCN(C)Cc1n[nH]c2ccc(OC(C)C)cc12 [Compound 64] | 1010 to 3000 | 1960
CCCOc1ccc2[nH]nc(CN(C)CCNC)c2c1 [Compound 65] | 101 to 1000 | 4940
CNCCN(C)Cc1n[nH]c2ccc(OCc3cccc(C(N)=O)c3)cc12 [Compound 66] | 1010 to 3000 | 1910
CNCCN(C)Cc1n[nH]c2ccc(Oc3cccc(OC(C)C)c3)cc12 [Compound 67] | 3010 to 10000 | 683
CNCCN(C)Cc1n[nH]c2ccc(OCc3ccc(C(F)(F)F)cc3)cc12 [Compound 68] | 3010 to 10000 | 1700
CNCCN(C)Cc1n[nH]c2ccc(OCc3ccc(C(N)=O)cc3)cc12 [Compound 69] | 3010 to 10000 | 4160
CNCCN(C)Cc1n[nH]c2ccc(OCc3cccc(NC(C)=O)c3)cc12 [Compound 70] | 101 to 1000 | 3700
CNCCN(C)Cc1n[nH]c2ccc(OCc3ccc(C(C)(C)C)cc3)cc12 [Compound 71] | 3010 to 10000 | 3790
CNCCN(C)Cc1n[nH]c2ccc(OCc3cccc(C(F)(F)F)c3)cc12 [Compound 72] | 101 to 1000 | 892
CNCCN(C)Cc1n[nH]c2ccc(OCc3cccc(C(C)=O)c3)cc12 [Compound 73] | 101 to 1000 | 4590
CNCCN(C)Cc1n[nH]c2ccc(OCc3cccc(C(C)(C)C)c3)cc12 [Compound 74] | 101 to 1000 | 305
